Test results from ChEMBL document CHEMBL1149560, “Discovery of a potent CDK2 inhibitor with a novel binding mode, using virtual screening and initial, structure-guided lead scoping” (Bioorg Med Chem Lett, 2007).
pIC50: −log10 of the molar value.

How the values were obtained:
[1] = target: Cyclin-dependent kinase 2 (Homo sapiens, UniProt P24941); experiment: Inhibition of CDK2
HCT-116 = experiment: Antiproliferative activity against HCT116 cells by SRB assay after 72 hrs; assay type: functional; settings: Homo sapiens, HCT-116, 72 h
[2] = target: Glycogen synthase kinase-3 beta (Homo sapiens, UniProt P49841); experiment: Inhibition of GSK3-beta
[3] = target: RAC-alpha serine/threonine-protein kinase (Homo sapiens) (UniProt P31749); experiment: Inhibition of AKT at 10 uM
[4] = Inhibition of PKA; set-up: species or system Homo sapiens
[5] = target: T1, Serine/threonine-protein kinase Chk1 (Homo sapiens) (UniProt O14757); experiment: Inhibition of Chk1 at 50 uM
T1 sequence (whole entry): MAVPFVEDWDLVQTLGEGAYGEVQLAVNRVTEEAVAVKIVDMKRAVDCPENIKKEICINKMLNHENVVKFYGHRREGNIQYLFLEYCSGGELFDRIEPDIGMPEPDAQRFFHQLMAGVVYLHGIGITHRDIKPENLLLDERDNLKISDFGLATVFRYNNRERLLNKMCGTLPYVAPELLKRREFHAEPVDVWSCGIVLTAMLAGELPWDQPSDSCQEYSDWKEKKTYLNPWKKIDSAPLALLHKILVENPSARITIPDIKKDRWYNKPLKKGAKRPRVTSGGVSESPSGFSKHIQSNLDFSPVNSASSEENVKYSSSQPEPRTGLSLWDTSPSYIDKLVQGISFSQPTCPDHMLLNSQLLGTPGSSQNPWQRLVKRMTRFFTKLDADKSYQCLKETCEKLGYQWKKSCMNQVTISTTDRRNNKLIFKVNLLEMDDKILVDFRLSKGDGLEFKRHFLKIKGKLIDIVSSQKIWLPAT

Glycogen synthase kinase-3 beta, sequence (P49841 whole entry): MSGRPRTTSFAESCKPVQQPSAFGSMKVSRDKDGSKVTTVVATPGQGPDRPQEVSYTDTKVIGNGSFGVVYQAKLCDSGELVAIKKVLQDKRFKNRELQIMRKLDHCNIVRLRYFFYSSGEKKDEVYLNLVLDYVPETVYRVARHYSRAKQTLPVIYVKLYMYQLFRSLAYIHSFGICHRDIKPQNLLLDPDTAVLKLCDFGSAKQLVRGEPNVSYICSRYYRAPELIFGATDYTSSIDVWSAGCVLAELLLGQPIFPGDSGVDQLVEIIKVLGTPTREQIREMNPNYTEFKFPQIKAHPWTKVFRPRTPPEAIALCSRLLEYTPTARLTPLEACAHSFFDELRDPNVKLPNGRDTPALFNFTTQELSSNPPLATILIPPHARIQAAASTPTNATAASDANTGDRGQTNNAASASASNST
RAC-alpha serine/threonine-protein kinase (Homo sapiens), sequence (P31749 whole entry): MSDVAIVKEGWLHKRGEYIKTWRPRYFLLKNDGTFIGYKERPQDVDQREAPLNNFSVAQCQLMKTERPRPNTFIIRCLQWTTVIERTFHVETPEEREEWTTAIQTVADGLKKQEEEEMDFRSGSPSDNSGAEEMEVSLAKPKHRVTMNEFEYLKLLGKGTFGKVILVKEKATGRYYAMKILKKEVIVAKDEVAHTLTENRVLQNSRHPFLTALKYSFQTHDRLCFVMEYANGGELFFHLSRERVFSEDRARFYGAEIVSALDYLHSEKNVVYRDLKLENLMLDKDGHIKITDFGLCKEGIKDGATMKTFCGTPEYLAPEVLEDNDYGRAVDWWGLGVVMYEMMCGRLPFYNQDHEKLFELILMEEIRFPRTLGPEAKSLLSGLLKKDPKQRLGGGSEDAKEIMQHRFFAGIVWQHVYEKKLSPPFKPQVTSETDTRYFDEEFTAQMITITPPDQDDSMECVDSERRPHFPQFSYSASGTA

SMILES | pIC50 [1] | GI50 (HCT-116) | pIC50 [2] | inhibition [3] | pIC50 [4] | inhibition [5]
N=C1NC(=O)/C(=C/c2ccc(-c3ccc(C(N)=O)cc3)o2)S1 | 5.03 | > 80 µM |  |  |  | 
CNS(=O)(=O)c1ccc(-c2ccc(/C=C3\SC(=N)NC3=O)o2)cc1 |  | > 80 µM | 7.10 |  |  | 
N=C1NC(=O)/C(=C/c2ccc(-c3ccc(S(=O)(=O)N4CCOCC4)cc3)o2)S1 | 3.82 |  |  |  |  | 
N=C1NC(=O)/C(=C/c2ccc(-c3ccc(S(N)(=O)=O)c(Cl)c3)o2)S1 | 6.24 | > 80 µM | 7.85 |  |  | 
N=C1NC(=O)/C(=C/c2ccc(-c3ccc(S(N)(=O)=O)c(C(F)(F)F)c3)o2)S1 |  | > 80 µM | 8.70 |  |  | 
NS(=O)(=O)c1ccc(-c2ccc(/C=C3\SC(=O)NC3=O)o2)cc1 |  | > 80 µM |  |  |  | 
C/C(=C1/SC(=N)NC1=O)c1ccc(-c2ccc(S(N)(=O)=O)cc2)o1 |  | > 80 µM | 6.37 |  |  | 
N=C1NC(=O)/C(=C/c2ccc(-c3ccc(S(N)(=O)=O)cc3)o2)S1 |  | > 80 µM | 6.60 | 54% | 4.11 | 44%
N=C1NC(=O)/C(=C/c2ccc(-c3ccccc3[N+](=O)[O-])o2)S1 | 4.72 | > 80 µM |  |  |  | 
N=C1NC(=O)/C(=C/c2ccc(-c3ccc(C(=O)O)cc3)o2)S1 |  | > 80 µM |  |  |  | 
CN(C)CCNS(=O)(=O)c1ccc(-c2ccc(/C=C3\SC(=N)NC3=O)o2)cc1 | 6.24 | > 80 µM | 6.29 |  |  | 
N=C1NC(=O)/C(=C/c2ccc(-c3ccc(S(=O)(=O)N4CCNCC4)cc3)o2)S1 | 5.54 | > 80 µM |  |  |  | 
